# Measurements: ChEMBL document CHEMBL1201862, “PubChem BioAssay data set” (2004)
#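 Exposure lasted 48 hours, with cells grown in 96-well plates and compounds tested at five concentrations. GI50: concentration for 50% inhibition of growth.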 Activity calls are given as the source filed them. No stated cut-off is given here; in the data, active = GI50 up to about 1.1 µM and inactive = higher.
# Legend:
# Assay in all cases: growth of human tumour cells (NCI), 48 h
# [1] = system: DLD-1
# [2] = system: TK-10
# [3] = system: UACC-257
# [4] = system: RPMI-8226
# [5] = system: HCC 2998
# [6] = system: UO-31
# [7] = system: COLO 205
# [8] = system: M14
# [9] = system: KM12
# [10] = system: SF-295
# [11] = system: HL-60
# [12] = system: 786-0
# [13] = system: EKVX
# [14] = system: A549
# [15] = system: HT-29
# [16] = system: Malme-3M
# [17] = system: KM-20L2
# [18] = system: RXF 631
# [19] = system: OVCAR-8
# [20] = system: RXF 393
# [21] = system: SK-MEL-2
# [22] = system: SN12C
# [23] = system: SNB-75
# [24] = system: NCI-H23
# [25] = system: HOP-92
# [26] = system: ACHN
# [27] = system: OVCAR-4
# [28] = system: M19-MEL
# [29] = system: DMS-273
# [30] = system: IGROV-1
# [31] = system: DMS-114
# [32] = system: SK-MEL-5
# [33] = system: UACC-62
# [34] = system: K562
# [35] = system: OVCAR-3
# [36] = system: HCT-116
# [37] = system: NCI-H460
# [38] = system: NCI-H522
# [39] = system: SW-620
# [40] = system: MOLT-4
# [41] = system: HOP-62
# [42] = system: SF-268
# [43] = system: OVCAR-5
# [44] = system: SF-539
# [45] = system: LXFL 529
# [46] = system: XF498
# [47] = system: SK-MEL-28
# [48] = system: SNB-19
# [49] = system: HCT-15
# [50] = system: CCRF-CEM
# [51] = system: U-251
# [52] = system: CAKI-1
# [53] = system: SK-OV-3
# [54] = system: SNB-78
# [55] = system: A498
# [56] = system: LOX IMVI
# [57] = system: SR
# [58] = system: NCI-H226
structure (smiles),measurement,setting,value
N#Cc1cccc(C2C(=O)c3ccc(C(=O)c4ccc5c(c4)C(=O)N(c4ccc(Oc6ccc(N7C(=O)c8ccc(C(=O)c9ccc%10c(c9)C(=O)N(c9cccc(C#N)c9)C%10=O)cc8C7=O)cc6)cc4)C5=O)cc3C2=O)c1 (stereo not given),GI50,[1],> 100 µM (inactive)
same,GI50,[2],40.2 µM (inactive)
same,GI50,[3],> 100 µM (inactive)
same,GI50,[4],> 100 µM (inactive)
same,GI50,[5],> 100 µM (inactive)
same,GI50,[6],> 100 µM (inactive)
same,GI50,[7],> 100 µM (inactive)
same,GI50,[8],> 100 µM (inactive)
same,GI50,[9],> 100 µM (inactive)
same,GI50,[10],> 100 µM (inactive)
same,GI50,[11],> 100 µM (inactive)
same,GI50,[12],> 100 µM (inactive)
same,GI50,[13],> 100 µM (inactive)
same,GI50,[14],> 100 µM (inactive)
same,GI50,[15],> 100 µM (inactive)
same,GI50,[16],> 100 µM (inactive)
same,GI50,[17],> 100 µM (inactive)
same,GI50,[18],> 100 µM (inactive)
same,GI50,[19],> 100 µM (inactive)
same,GI50,[20],> 100 µM (inactive)
same,GI50,[21],> 100 µM (inactive)
same,GI50,[22],> 100 µM (inactive)
same,GI50,[23],> 100 µM (inactive)
same,GI50,[24],> 100 µM (inactive)
same,GI50,[25],> 100 µM (inactive)
same,GI50,[26],> 100 µM (inactive)
same,GI50,[27],> 100 µM (inactive)
same,GI50,[28],> 100 µM (inactive)
same,GI50,[29],> 100 µM (inactive)
same,GI50,[30],> 100 µM (inactive)
same,GI50,[31],> 100 µM (inactive)
same,GI50,[32],> 100 µM (inactive)
same,GI50,[33],> 100 µM (inactive)
same,GI50,[34],> 100 µM (inactive)
same,GI50,[35],> 100 µM (inactive)
same,GI50,[36],> 100 µM (inactive)
same,GI50,[37],> 100 µM (inactive)
same,GI50,[38],> 100 µM (inactive)
same,GI50,[39],> 100 µM (inactive)
same,GI50,[40],> 100 µM (inactive)
same,GI50,[41],> 100 µM (inactive)
same,GI50,[42],> 100 µM (inactive)
same,GI50,[43],> 100 µM (inactive)
same,GI50,[44],> 100 µM (inactive)
same,GI50,[45],> 100 µM (inactive)
same,GI50,[46],> 100 µM (inactive)
same,GI50,[47],> 100 µM (inactive)
same,GI50,[48],82.2 µM (inactive)
same,GI50,[49],> 100 µM
same,GI50,[50],> 100 µM (inactive)
same,GI50,[51],> 100 µM (inactive)
NC(=O)C(=O)C1CCC2=C(Sc3ccccc3N2)C1=O (stereo not given),GI50,[1],> 100 µM (inactive)
same,GI50,[2],> 100 µM (inactive)
same,GI50,[3],> 100 µM (inactive)
same,GI50,[4],> 100 µM (inactive)
same,GI50,[52],> 100 µM (inactive)
same,GI50,[5],> 100 µM (inactive)
same,GI50,[6],> 100 µM (inactive)
same,GI50,[7],> 100 µM (inactive)
same,GI50,[8],> 100 µM (inactive)
same,GI50,[9],> 100 µM (inactive)
same,GI50,[11],> 100 µM (inactive)
same,GI50,[12],> 100 µM (inactive)
same,GI50,[13],> 100 µM (inactive)
same,GI50,[14],> 100 µM (inactive)
same,GI50,[16],> 100 µM (inactive)
same,GI50,[53],> 100 µM (inactive)
same,GI50,[17],> 100 µM (inactive)
same,GI50,[18],> 100 µM (inactive)
same,GI50,[19],> 100 µM (inactive)
same,GI50,[20],> 100 µM (inactive)
same,GI50,[21],> 100 µM (inactive)
same,GI50,[23],> 100 µM (inactive)
same,GI50,[24],> 100 µM (inactive)
same,GI50,[54],> 100 µM (inactive)
same,GI50,[25],27.4 µM (inactive)
same,GI50,[26],> 100 µM (inactive)
same,GI50,[27],> 100 µM (inactive)
same,GI50,[28],> 100 µM (inactive)
same,GI50,[30],> 100 µM (inactive)
same,GI50,[31],> 100 µM (inactive)
same,GI50,[32],> 100 µM (inactive)
same,GI50,[33],> 100 µM (inactive)
same,GI50,[34],> 100 µM (inactive)
same,GI50,[35],> 100 µM (inactive)
same,GI50,[36],> 100 µM (inactive)
same,GI50,[37],> 100 µM (inactive)
same,GI50,[38],37.5 µM (inactive)
same,GI50,[39],> 100 µM (inactive)
same,GI50,[40],> 100 µM (inactive)
same,GI50,[55],> 100 µM (inactive)
same,GI50,[41],> 100 µM (inactive)
same,GI50,[42],> 100 µM (inactive)
same,GI50,[43],> 100 µM (inactive)
same,GI50,[44],> 100 µM (inactive)
same,GI50,[45],> 100 µM (inactive)
same,GI50,[47],> 100 µM (inactive)
same,GI50,[48],> 100 µM (inactive)
same,GI50,[49],> 100 µM
same,GI50,[50],> 10 µM (inactive)
same,GI50,[56],> 100 µM (inactive)
same,GI50,[51],> 100 µM (inactive)
Clc1ccc2nc(-c3ccccc3)nc(Cl)c2c1,GI50,[1],60.1 µM (inactive)
same,GI50,[2],21.7 µM (inactive)
same,GI50,[3],45 µM (inactive)
same,GI50,[4],> 100 µM (inactive)
same,GI50,[52],21.1 µM (inactive)
same,GI50,[5],40.2 µM (inactive)
same,GI50,[6],> 100 µM (inactive)
same,GI50,[7],> 100 µM (inactive)
same,GI50,[9],> 100 µM (inactive)
same,GI50,[10],46.3 µM (inactive)
same,GI50,[57],> 100 µM (inactive)
same,GI50,[11],12.5 µM (inactive)
same,GI50,[12],33 µM (inactive)
same,GI50,[13],29.2 µM (inactive)
same,GI50,[14],50.6 µM (inactive)
same,GI50,[15],> 100 µM (inactive)
same,GI50,[16],24.2 µM (inactive)
same,GI50,[53],12.3 µM (inactive)
same,GI50,[17],> 100 µM (inactive)
same,GI50,[18],29.6 µM (inactive)
same,GI50,[19],37 µM (inactive)
same,GI50,[20],26.1 µM (inactive)
same,GI50,[21],45.6 µM (inactive)
same,GI50,[22],> 100 µM (inactive)
same,GI50,[23],22.1 µM (inactive)
same,GI50,[24],69.2 µM (inactive)
same,GI50,[54],88.1 µM (inactive)
same,GI50,[25],25.4 µM (inactive)
same,GI50,[26],24.9 µM (inactive)
same,GI50,[28],58.2 µM (inactive)
same,GI50,[29],55.5 µM (inactive)
same,GI50,[30],> 100 µM (inactive)
same,GI50,[31],39.3 µM (inactive)
same,GI50,[32],> 100 µM (inactive)
same,GI50,[33],49.8 µM (inactive)
same,GI50,[34],> 100 µM (inactive)
same,GI50,[35],49.2 µM (inactive)
same,GI50,[36],73.6 µM (inactive)
same,GI50,[37],87.9 µM (inactive)
same,GI50,[58],34 µM (inactive)
same,GI50,[39],> 100 µM (inactive)
same,GI50,[40],> 100 µM (inactive)
same,GI50,[55],> 100 µM (inactive)
same,GI50,[41],23.9 µM (inactive)
same,GI50,[42],52.8 µM (inactive)
same,GI50,[43],> 100 µM (inactive)
same,GI50,[44],46.6 µM (inactive)
same,GI50,[45],52.7 µM (inactive)
same,GI50,[47],80.5 µM (inactive)
same,GI50,[48],69.2 µM (inactive)
same,GI50,[49],> 100 µM
same,GI50,[50],38.6 µM (inactive)
same,GI50,[51],68.1 µM (inactive)
